# Measured values published in article PMC7673538 (PLoS Biology, 2020).
# “And” between values parts separate entries of the source, which are not always exact repeats. Equal values may be shown once. Read-outs that look alike come from different tables or passages of the source.
# Experiments:
# EV-D68 = test: microbe, parasite or virus in culture; assay type: cell-based, enterovirus D68; settings: for EC50: Enterovirus D
# CV-A24v = test: microbe, parasite or virus in culture; assay type: cell-based, coxsackievirus A24v
# CV-A24 = test: microbe, parasite or virus in culture; assay type: cell-based, coxsackievirus A24
# CV-B3 [1] = test: microbe, parasite or virus in culture; assay type: cell-based, coxsackievirus B3; settings: Enterovirus B
# [2] = tested on: representative EVs and RVs; assay type: cell-based
# human NET = target: T1, human NET (Homo sapiens, UniProt P23975); assay type: cell-based; settings: for NET, Mean (Figure 8B): Control = 100; for NET, Mean as % (Figure 8B): Control = 100%
# T1 construct: expressed in transfected cells; host or cells: HEK293 (gift of Dr. Hoener, F. Hoffmann-La Roche)
# in vitro [3] = settings: monkey
# CV-B3 [4] = test: microbe, parasite or virus in culture; assay type: cell-based, coxsackievirus B3; settings: for EC50: Enterovirus B
# human SERT = target: T2, human SERT (Homo sapiens, UniProt P31645); assay type: cell-based; settings: for SERT, Mean (Figure 8B): Control = 100.00; for SERT, Mean as % (Figure 8B): Control = 100%
# T2 construct: expressed in transfected cells; host or cells: HEK293 (gift of Dr. Hoener, F. Hoffmann-La Roche)
# EV-A71 = test: microbe, parasite or virus in culture; assay type: cell-based, enterovirus A71; settings: Enterovirus A
# HRV-B14 = test: microbe, parasite or virus in culture; assay type: cell-based, human rhinovirus; settings: Human rhinovirus sp.
# HRV-A2 = test: microbe, parasite or virus in culture; assay type: cell-based, human rhinovirus; settings: Human rhinovirus sp., HRVA2, HeLa R19, read-out: EC50 HRV-A2
# in vitro [5] = settings: human
# T1 sequence (P23975 whole entry): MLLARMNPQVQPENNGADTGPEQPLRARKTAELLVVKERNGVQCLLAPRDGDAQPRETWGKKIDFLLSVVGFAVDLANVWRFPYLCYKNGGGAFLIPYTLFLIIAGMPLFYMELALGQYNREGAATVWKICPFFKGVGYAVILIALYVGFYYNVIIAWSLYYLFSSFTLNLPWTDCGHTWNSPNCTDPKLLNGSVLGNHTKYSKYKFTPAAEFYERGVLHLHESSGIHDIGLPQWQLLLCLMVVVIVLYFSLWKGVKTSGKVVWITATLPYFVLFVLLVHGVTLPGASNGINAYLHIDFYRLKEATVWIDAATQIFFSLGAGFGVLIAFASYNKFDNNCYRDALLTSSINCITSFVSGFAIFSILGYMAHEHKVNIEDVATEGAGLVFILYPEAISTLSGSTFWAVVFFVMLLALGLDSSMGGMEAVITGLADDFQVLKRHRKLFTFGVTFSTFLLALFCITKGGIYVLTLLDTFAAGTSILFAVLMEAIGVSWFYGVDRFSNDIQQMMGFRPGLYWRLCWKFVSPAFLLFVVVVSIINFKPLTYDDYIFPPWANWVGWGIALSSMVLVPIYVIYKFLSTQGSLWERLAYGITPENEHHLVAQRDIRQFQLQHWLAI
# T2 sequence (P31645 whole entry): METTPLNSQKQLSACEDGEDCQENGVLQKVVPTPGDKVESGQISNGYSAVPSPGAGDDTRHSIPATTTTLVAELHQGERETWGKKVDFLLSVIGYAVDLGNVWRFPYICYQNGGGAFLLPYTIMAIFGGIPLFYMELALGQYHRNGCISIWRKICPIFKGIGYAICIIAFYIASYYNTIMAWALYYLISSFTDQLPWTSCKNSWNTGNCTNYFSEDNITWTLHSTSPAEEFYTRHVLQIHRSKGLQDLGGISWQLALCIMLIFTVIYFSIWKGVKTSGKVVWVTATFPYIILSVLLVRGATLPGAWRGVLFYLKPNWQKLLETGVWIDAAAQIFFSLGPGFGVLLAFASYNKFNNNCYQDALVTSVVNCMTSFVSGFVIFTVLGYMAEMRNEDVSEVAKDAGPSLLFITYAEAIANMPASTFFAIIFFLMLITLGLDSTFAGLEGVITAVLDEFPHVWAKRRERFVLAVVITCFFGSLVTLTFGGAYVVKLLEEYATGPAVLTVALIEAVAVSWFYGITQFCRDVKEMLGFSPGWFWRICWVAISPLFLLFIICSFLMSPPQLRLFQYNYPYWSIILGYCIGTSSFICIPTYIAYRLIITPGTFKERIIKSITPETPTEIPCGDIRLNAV
structure (smiles),measurement,setting,value
"O=C(c1ccco1)N(Cc1ccc(F)cc1)c1ccccc1 [Compound 19b, N-(4-Fluorobenzyl)-N-phenylfuran-2-carboxamide]",cross-resistance of 19d-resistant EV-D68 virus pools (in words),EV-D68,cross-resistance
same,EC50,"EV-D68; EVD68, HeLa R19, […], read-out: EC50 Exp1",1870 nM
same,EC50,"EV-D68; EVD68, HeLa R19, read-out: EC50 Average",830 nM
same,EC50,"EV-D68; EVD68, HeLa R19, read-out: EC50 EV-D68",500 ± 260 nM
same,EC50,"EV-D68; EVD68, HeLa R19, read-out: EC50 EV-D68 strain 4310900947",1850 ± 180 nM
same,EC50,"EV-D68; EVD68, HeLa R19, read-out: EC50 EV-D68 strain 4310901348",1710 ± 680 nM
same,EC50,"EV-D68; EVD68, HeLa R19, read-out: EC50 EV-D68 strain 4310902042",910 ± 920 nM
same,EC50,"EV-D68; EVD68, HeLa R19, read-out: EC50 EV-D68 strain 4310902284",1290 ± 210 nM
same,EC50,"EV-D68; EVD68, HeLa R19, read-out: EC50 EV-D68 strain 4311000742",1310 ± 900 nM
same,EC50,"EV-D68; EVD68, HeLa R19, read-out: EC50 EV-D68 strain Fermon",580 ± 100 nM
same,EC50,"EV-D68; EVD68 / genotype 2c, HeLa R19, read-out: EC50 EV-D68 WT",830 ± 90 nM
same,EC50,"CV-A24v; Coxsackievirus, HeLa R19, read-out: EC50 CV-A24v strain 110386",2.53 ± 0.45 µM
same,EC50,"CV-A24v; Coxsackievirus, HeLa R19, read-out: EC50 CV-A24v strain 110389",5.65 ± 0.23 µM
same,EC50,"CV-A24v; Coxsackievirus, HeLa R19, read-out: EC50 CV-A24v strain 110390",4.16 ± 0.17 µM
same,EC50,"CV-A24v; Coxsackievirus, HeLa R19, read-out: EC50 CV-A24v strain 110392",4.35 ± 0.18 µM
same,EC50,"CV-A24v; Coxsackievirus, HeLa R19, read-out: EC50 Exp2",2.98 µM
same,EC50,CV-A24v; read-out: EC50 Exp2,5.42 µM and 4.32 µM and 4.53 µM
same,EC50,"CV-A24; Enterovirus C, CVA24, HeLa R19, read-out: EC50 CV-A24",6.39 ± 0.74 µM
same,EC50,"CV-A24; Enterovirus C, CVA24, HeLa R19, read-out: EC50 CV-A24 strain Joseph",4.99 ± 0.61 µM
same,EC50,"CV-A24; Enterovirus C, CVA24, HeLa R19, read-out: EC50 Exp1",5.65 µM
same,EC50,"CV-A24; Enterovirus C, CVA24, HeLa R19, read-out: EC50 Exp2",7.12 µM
same,EC50,CV-A24; read-out: EC50 Exp1,4.38 µM
same,EC50,CV-A24; read-out: EC50 Exp2,5.6 µM
same,EC50,"CV-B3 [1]; CVB3, HAP1, read-out: EC50 Hap1 Average",350 nM
same,EC50,"CV-B3 [1]; CVB3, HAP1, read-out: Exp 1 EC50 Hap1",150 nM
same,EC50,"CV-B3 [1]; CVB3, HAP1, read-out: Exp 2 EC50 Hap1",550 nM
same,"inhibition of contemporary/clinical isolates of EV-A71, CV-A24v and EV-D68 (in words)",[2],"inhibited all clinical isolates of EV-A71, CV-A24v, and EV-D68 tested"
same,spectrum of antiviral activity (in words),[2],inhibited all representative EVs and RVs
same,"NET, Mean (Figure 8B)",human NET; 1µM,124.304
same,"NET, Mean as % (Figure 8B)",human NET; 1µM,124%
same,"NET, Mean (Figure 8B)",human NET; 100µM,113.384
same,"NET, Mean as % (Figure 8B)",human NET; 100µM,113%
same,inhibition of NET function (in words),"human NET; HEK293 cells expressing human NET, 1 μM or 100 μM","neither 12a, 19b, 19d, nor the combined compound 12b inhibited"
same,CC50,in vitro [3]; CC50,> 100 µM
same,CC50,in vitro [3]; CC50 BGM Average,> 100 µM
same,CC50,in vitro [3]; Exp 1 CC50 BGM,> 100 µM
same,CC50,in vitro [3]; Exp 2 CC50 BGM,> 100 µM
same,cross-resistance of 19d-resistant CV-B3 virus pools (in words),CV-B3 [4],cross-resistant
same,increase or decrease of antiviral activity against CV-B3,CV-B3 [4],less than 3 fold
same,EC50,"CV-B3 [4]; CVB3, HeLa R19, read-out: CV-B3 EC50 Average",830 nM
same,EC50,"CV-B3 [4]; CVB3, HeLa R19, read-out: CV-B3 Exp 1 EC50",730 nM
same,EC50,"CV-B3 [4]; CVB3, HeLa R19, read-out: CV-B3 Exp2 EC50",930 nM
same,EC50,"CV-B3 [4]; CVB3, HeLa R19, read-out: EC50 Exp1",220 nM
same,EC50,"CV-B3 [4]; CVB3, HeLa R19, read-out: EC50 HelaR19 Average",680 nM
same,EC50,"CV-B3 [4]; CVB3, HeLa R19, read-out: Exp 1 EC50 HelaR19",460 nM
same,EC50,"CV-B3 [4]; CVB3, HeLa R19, read-out: Exp 2 EC50 HelaR19",890 nM
same,EC50,"CV-B3 [4]; CVB3 / genotype 2c, HeLa R19, read-out: EC50 CV-B3 WT",290 ± 50 nM
same,"SERT, Mean (Figure 8B)",human SERT; 1µM,104.08
same,"SERT, Mean as % (Figure 8B)",human SERT; 1µM,104%
same,"SERT, Mean (Figure 8B)",human SERT; 100µM,84.31
same,"SERT, Mean as % (Figure 8B)",human SERT; 100µM,84%
same,inhibition of SERT-mediated uptake (in words),"human SERT; HEK293 cells expressing human SERT, 1 and 100 μM","neither 12a, 19b, 19d, nor the combined compound 12b inhibited"
same,EC50,"EV-A71; EVA71, HeLa R19, read-out: EC50 Average",2020 nM
same,EC50,"EV-A71; EVA71, HeLa R19, read-out: EC50 EV-A71",890 ± 90 nM
same,EC50,"EV-A71; EVA71, HeLa R19, read-out: EC50 EV-A71 strain BrCr",1120 ± 150 nM
same,EC50,"EV-A71; EVA71, HeLa R19, read-out: EC50 EV-A71 strain TW/2728/04",2100 ± 80 nM
same,EC50,"EV-A71; EVA71, HeLa R19, read-out: EC50 EV-A71 strain TW/2945/98",2020 ± 150 nM
same,EC50,"EV-A71; EVA71, HeLa R19, read-out: EC50 EV-A71 strain TW/70811/08",920 ± 170 nM
same,EC50,"EV-A71; EVA71, HeLa R19, read-out: EC50 EV-A71 strain TW/72232/04",3830 ± 250 nM
same,EC50,"EV-A71; EVA71, HeLa R19, read-out: EC50 EV-A71 strain TW/96016/08",1890 ± 20 nM
same,EC50,"EV-A71; EVA71 / genotype 2c, HeLa R19, read-out: EC50 EV-A71 WT",820 ± 120 nM
same,cytotoxicity (in words),HeLa R19 cells,did not show any cytotoxicity
same,EC50,"HRV-B14; HRVB14, HeLa R19, read-out: EC50 Exp1",11.1 µM
same,EC50,"HRV-B14; HRVB14, HeLa R19, read-out: EC50 Exp2",9.9 µM
same,EC50,"HRV-B14; HRVB14, HeLa R19, read-out: EC50 HRV-B14",10.5 ± 0.61 µM
same,EC50,HRV-A2,22.2 ± 0.61 µM
same,CC50,in vitro [5]; CC50,> 100 µM
same,CC50,in vitro [5]; CC50 Hap1 Average,> 100 µM
same,CC50,in vitro [5]; Exp 1 CC50 Hap1,> 100 µM
same,CC50,in vitro [5]; Exp 2 CC50 Hap1,> 100 µM
